Reference: patent publication US11021446B2 (NOVARTIS AG, priority 2013, dated 2021)

The compounds below were run against T1, human Farnesoid X Receptor (FXR) ligand binding domain (GST-FXR LBD) (Homo sapiens, UniProt Q96RI1) (assay: Human GST-FXR LBD co-activator interaction assay (FXR HTRF assay)). Conditions: GST-FXR LBD interaction with biotin-labeled SRC-1 peptide, FRET, response relative to GW4064, read-out: FXR coactivator interaction assay (HTRF).
T1 construct: purchased Invitrogen
T1 sequence (Q96RI1 193-472 isoform Q96RI1-2): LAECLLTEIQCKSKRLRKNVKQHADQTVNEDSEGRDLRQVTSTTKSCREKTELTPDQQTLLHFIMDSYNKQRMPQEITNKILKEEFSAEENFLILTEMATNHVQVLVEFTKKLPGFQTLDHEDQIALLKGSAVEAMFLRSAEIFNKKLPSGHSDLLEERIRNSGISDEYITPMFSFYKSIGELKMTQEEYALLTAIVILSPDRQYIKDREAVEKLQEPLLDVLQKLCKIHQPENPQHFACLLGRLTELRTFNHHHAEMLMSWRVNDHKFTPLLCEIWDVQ
Assay type: biochemical

| EC50 | SMILES |
| --- | --- |
| 3.2 nM | Cn1nc(C(=O)N(CC(=O)Nc2cccc(C(=O)O)c2)Cc2ccccc2F)c2c1-c1cc(Cl)ccc1CC2 [Compound 24, 3-(2-(8-chloro-N-(2-fluorobenzyl)-1-methyl-4,5-dihydro-1H-benzo[g]indazole-3-carboxamido)acetamido)benzoic acid] |
| 14 nM | Cn1nc(C(=O)N(Cc2ccc(C(=O)O)cc2)Cc2cc(F)cc(F)c2)c2c1-c1cc(F)ccc1OC2 [Compound 83, 4-((N-(3,5-difluorobenzyl)-8-fluoro-1-methyl-1,4-dihydrochromeno[4,3-c]pyrazole-3-carboxamido)methyl)benzoic acid] |
| 13 nM | Cn1nc(C(=O)N(Cc2ccccc2F)Cc2ccc(C(=O)O)cc2F)c2c1-c1cc(Cl)ccc1OC2 [Compound 93, 4-((8-chloro-N-(2-fluorobenzyl)-1-methyl-1,4-dihydrochromeno[4,3-c]pyrazole-3-carboxamido)methyl)-3-fluorobenzoic acid] |
| 2.6 nM | Cn1nc(C(=O)N(CC(=O)Nc2cc(F)cc(C(=O)O)c2)Cc2ccccc2F)c2c1-c1cc(Cl)ccc1OC2 [Compound 38, 3-(2-(8-chloro-N-(2-fluorobenzyl)-1-methyl-1,4-dihydrochromeno[4,3-c]pyrazole-3-carboxamido)acetamido)-5-fluorobenzoic Acid] |
| 3.6 nM | Cn1nc(C(=O)N(CC(=O)Nc2cccc(C(=O)O)c2)Cc2ccccc2F)c2c1-c1ccc(Cl)cc1OC2 [Compound 9, 3-(2-(7-chloro-N-(2-fluorobenzyl)-1-methyl-1,4-dihydrochromeno[4,3-c]pyrazole-3-carboxamido)acetamido)benzoic acid] |
| 0.8 nM | Cc1cc2c(cc1Cl)-c1c(c(C(=O)N(CC(=O)Nc3cccc(C(=O)O)c3)Cc3ccccc3F)nn1C)CO2 [Compound 13, 3-(2-(8-chloro-N-(2-fluorobenzyl)-1,7-dimethyl-1,4-dihydrochromeno[4,3-c]pyrazole-3-carboxamido)acetamido)benzoic acid] |
| 1.5 nM | Cn1nc(C(=O)N(CC(=O)Nc2cc(C(=O)O)ccc2F)Cc2ccccc2)c2c1-c1ccccc1OC2 [Compound 33, 3-(2-(N-benzyl-1-methyl-1,4-dihydrochromeno[4,3-c]pyrazole-3-carboxamido)acetamido)-4-fluorobenzoic acid] |
| 5.5 nM | Cn1nc(C(=O)N(CCNc2cc(C(=O)O)ccc2F)Cc2ccccc2F)c2c1-c1cc(Cl)ccc1OC2 [Compound 101, 3-((2-(8-chloro-N-(2-fluorobenzyl)-1-methyl-1,4-dihydrochromeno[4,3-c]pyrazole-3-carboxamido)ethyl)amino)-4-fluorobenzoic Acid] |
| 61 nM | Cn1nc(C(=O)N(CCOc2cc(C(=O)O)ccc2F)Cc2ccccc2F)c2c1-c1cc(Cl)ccc1OC2 [Compound 48, 3-(2-(8-chloro-N-(2-fluorobenzyl)-1-methyl-1,4-dihydrochromeno[4,3-c]pyrazole-3-carboxamido)ethoxy)-4-fluorobenzoic acid] |
| 29 nM | Cc1nc(C(=O)O)ccc1CN(Cc1cccc(F)c1)C(=O)c1nn(C)c2c1COc1ccc(Cl)cc1-2 [Compound 99, 5-((8-chloro-N-(3-fluorobenzyl)-1-methyl-1,4-dihydrochromeno[4,3-c]pyrazole-3-carboxamido)methyl)-6-methylpicolinic acid] |
| 32 nM | Cn1nc(C(=O)N(Cc2ccccc2F)Cc2ccc(C(=O)O)cc2F)c2c1-c1cc(F)ccc1OC2 [Compound 94, 3-fluoro-4-((8-fluoro-N-(2-fluorobenzyl)-1-methyl-1,4-dihydrochromeno[4,3-c]pyrazole-3-carboxamido)methyl)benzoic acid] |
| 30 nM | Cn1nc(C(=O)N(CCOc2ccc(C(=O)O)cc2F)Cc2ccccc2)c2c1-c1cc(F)c(F)cc1OC2 [Compound 57, 4-(2-(N-benzyl-7,8-difluoro-1-methyl-1,4-dihydrochromeno[4,3-c]pyrazole-3-carboxamido)ethoxy)-3-fluorobenzoic acid] |
| 8.3 nM | Cn1nc(C(=O)N(Cc2ccc(C(=O)O)cc2)Cc2cc(F)cc(F)c2)c2c1-c1cc(Cl)ccc1OC2 [Compound 78, 4-((8-chloro-N-(3,5-difluorobenzyl)-1-methyl-1,4-dihydrochromeno[4,3-c]pyrazole-3-carboxamido)methyl)benzoic acid] |
| 17 nM | Cc1cc(C(=O)O)cc(C)c1OCCN(CC1CCCC1)C(=O)c1nn(C)c2c1COc1ccc(Cl)cc1-2 [Compound 49, 4-(2-(8-chloro-N-(cyclopentylmethyl)-1-methyl-1,4-dihydrochromeno[4,3-c]pyrazole-3-carboxamido)ethoxy)-3,5-dimethylbenzoic acid] |
